According to PubChem BioAssay (NCI):
Where “and” joins values, the source holds several entries; their conditions need not be identical. Equal entries are not always repeated.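 Each compound was tested at five concentrations against cells in 96-well plates for 48 hours. GI50: concentration for 50% inhibition of growth. TGI marks complete inhibition of growth.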

What was measured:
Test in all cases: NCI-60 cell line screen, 48 h
A498 renal = tested on: A498 renal
IGROV1 ovarian = tested on: IGROV1 ovarian
NCI-H23 lung = tested on: NCI-H23 lung
SNB-75 CNS = tested on: SNB-75 CNS
CAKI-1 renal = tested on: CAKI-1 renal
SF-268 CNS = tested on: SF-268 CNS
TK-10 renal = tested on: TK-10 renal
RPMI-8226 leukemia = tested on: RPMI-8226 leukemia
MALME-3M melanoma = tested on: MALME-3M melanoma
UO-31 renal = tested on: UO-31 renal

Compound | TGI (A498 renal) [µM] | TGI (IGROV1 ovarian) [µM] | TGI (NCI-H23 lung) [µM] | TGI (SNB-75 CNS) [µM] | TGI (CAKI-1 renal) [µM] | TGI (SF-268 CNS) [µM] | TGI (TK-10 renal) [µM] | TGI (RPMI-8226 leukemia) [µM] | TGI (MALME-3M melanoma) [µM] | TGI (UO-31 renal) [µM] | GI50 (RPMI-8226 leukemia) [µM] | GI50 (A498 renal) [µM] | GI50 (NCI-H23 lung) [µM] | GI50 (SF-268 CNS) | GI50 (UO-31 renal)
CCOc1ccc(C2c3[nH]c4ccccc4c3CCN2C(=O)c2cccs2)cc1 (stereo not given) | > 100 | > 100 | > 100 | > 100 | > 100 | > 100 | > 100 | > 100 | > 100 | > 100 |  |  |  |  | 
CN(C)c1ccc(C(C#N)N2CCCN(C(C#N)c3ccc(N(C)C)cc3)C2c2ccc(N(C)C)cc2)cc1 (stereo not given) | > 100 | > 100 | > 100 | > 100 | > 100 | > 100 | > 100 | > 100 | > 100 | > 100 |  |  |  |  | 
CCOP(=O)(CS(C)=O)O[C@@H]1C[C@H](C)CC[C@H]1C(C)C (stereo not given in full) | 4.87 | 10.3 | 17.6 | > 27.5 | 12.8 | 21.3 | 16.3 | 5.3 | 26.8 | 7.15 |  |  |  |  | 
CCCOc1ccc(/C=C/c2cc(OC)c(OC)c(OC)c2)cc1 | > 22.6 | > 100 | 0.706 | 0.603 | 37.6 | > 100 | > 100 | 28.4 | 84.8 | > 100 |  |  |  |  | 
c1ccc(C2=NN(c3ccccc3)C3(S2)SC(c2ccccc2)(c2ccccc2)c2ccccc23)cc1 (stereo not given) | > 100 | > 100 | > 100 | > 100 | > 100 | > 100 | > 100 | > 100 | > 100 | > 100 |  |  |  |  | 
CC(=O)OCC(OC(C)=O)C(OC(C)=O)C(/C=N/N(C(C)=O)S(=O)(=O)c1ccc(/C=C2\NC(=O)NC2=O)cc1)OC(C)=O (stereo not given) | > 100 | > 100 | > 100 | > 100 | > 100 | > 100 | > 100 | > 100 | > 100 | > 100 | 0.583 |  |  |  | 
CCN(CC)c1ccc(/C=C/C2=NN(c3cccc(S(=O)(=O)O)c3)C3(C2)C(Cl)C(=O)N3c2nc3ccccc3s2)cc1 (stereo not given) | 24.8 | 17 | 22.8 | 25.3 | 8.26 | 41.5 | 14.3 | 6.89 | 24.9 | 3.6 |  |  |  |  | 
COc1ccc(CSCc2cc(OC)c(OC)c(OC)c2)cc1 | > 100 | > 100 | > 100 | > 100 | > 100 | > 100 | > 100 | > 100 | > 31.6 | > 100 |  |  |  |  | 
NC(=S)N/N=C/c1cc(CN2CCOCC2)c(N)cn1 | > 100 | > 100 | > 100 | 89.4 | > 100 | > 100 | > 100 | > 100 | > 100 | > 100 |  |  |  |  | 
CC(=O)NNC=N/C(C#N)=C(\N)C#N | > 100 | > 100 | > 100 | > 100 | > 100 | > 100 | > 100 | > 100 | > 100 | > 100 |  |  |  |  | 
NN/C(=N\S(=O)(=O)c1cc(Cl)c(Oc2ccc([N+](=O)[O-])cc2Cl)c(Cl)c1)Nc1ccc(Cl)cc1 | 64.4 | 42.3 | 31.4 | 56.3 | 40.7 | 34.2 | 56.6 | > 100 | 37.2 | 32.3 |  |  |  |  | 
CN1CC=C(OP(=O)(NCc2ccccc2)N(CCCl)CCCl)CC1 (stereo not given) | > 100 | > 100 | > 100 | > 100 | > 100 | > 100 | > 100 | > 100 | > 100 | > 100 |  |  |  |  | 
CC(C)=CCC/C(C)=C/Cc1cc(/C=C/c2cc(O)c(CC=C(C)C)c(O)c2)cc(O)c1O | 20.6 | 6.81 | 11.2 | 7.57 | 16.9 | 12.3 | 14.2 | 3.68 | 18.6 | 2.89 |  |  |  |  | 
O=C(Nc1ccc(C(F)(F)F)cc1[N+](=O)[O-])C(=O)C(C(=O)c1ccc2ccccc2c1)C1OC(=O)c2ccccc21 (stereo not given) | 19.7 | > 66.3 | 12.1 | 23 | 41.7 | 52 | 35 | > 67.3 | 25.8 | 28.8 |  |  |  |  | 
CCc1cc(Cc2cc(CC)c(NC(=O)C3=CC(=O)CC(c4ccc(OC)cc4)O3)c(CC)c2Cl)c(Cl)c(CC)c1NC(=O)C1=CC(=O)CC(c2ccc(OC)cc2)O1 (stereo not given) | 39.9 | 45.5 | 32 | 46.2 | 65.8 | 58.2 | 51.7 | 46.8 | 37.2 | 30.8 |  |  |  |  | 
Cn1c(=O)nc2n(CCO)c(-c3ccccc3)c(-c3ccccc3)nc-2c1=O | > 100 | > 100 | > 100 | > 100 | > 100 | > 100 | > 100 | > 100 | > 100 | > 100 |  |  |  |  | 
Cc1ccc(S(=O)(=O)N/N=C2\C(=O)C3CC2C(Cl)C3Cl)cc1 (stereo not given) | > 100 | > 100 | > 100 | > 100 | > 100 | > 100 | > 100 | > 100 | > 100 | > 100 |  |  |  |  | 

Compound | TGI (A498 renal) [µM] | TGI (IGROV1 ovarian) [µM] | TGI (NCI-H23 lung) [µM] | TGI (SNB-75 CNS) [µM] | TGI (CAKI-1 renal) [µM] | TGI (SF-268 CNS) [µM] | TGI (TK-10 renal) [µM] | TGI (RPMI-8226 leukemia) [µM] | TGI (MALME-3M melanoma) [µM] | TGI (UO-31 renal) [µM] | GI50 (RPMI-8226 leukemia) [µM] | GI50 (A498 renal) [µM] | GI50 (NCI-H23 lung) [µM] | GI50 (SF-268 CNS) | GI50 (UO-31 renal)
COc1ccc2c(c1)c(Cc1c(C)n(C)c3ccc(OC)cc13)c(C)n2C | > 100 | > 100 | > 100 | > 100 | > 100 | > 100 | > 100 | > 100 | > 100 | > 100 |  |  |  |  | 
Cc1c(-c2ccccc2)c(-c2ccc(OCCN(C)C)cc2)n2ccccc12 | 29.1 | 23.8 | 32 | 22.4 | 23.9 | 34.2 | 27.3 | 6.96 | 17.3 | 23.7 |  |  |  |  | 
N#Cc1cnn2c1n[n+]([O-])c1ccc(Cl)cc12 | 46 | 8.53 | 12.2 | 15.4 | 2.53 | > 40.3 | > 100 | > 100 | 19.8 | 21.7 |  |  |  |  | 
C[N+](C)(C)CC1Cc2ccccc2C1=O (stereo not given) | > 10 | > 10 | > 10 | > 10 | > 8.58 | > 10 | > 10 | > 6.86 | 4.53 | > 10 |  |  |  |  | 
Cc1sc2ncnc(NCCc3ccccc3)c2c1C | 29 | 32.5 | 36 | 53.5 | 56.7 | 60.1 | 46.5 | 42.8 | 52.3 | 38.8 |  |  |  |  | 
O=C(Cc1ccccc1)N/N=C(/CCN1CCCC1)CC(c1ccccc1)c1c(O)c2ccccc2oc1=O (stereo not given) | > 100 | > 100 | > 100 | > 100 | > 100 | > 100 | > 100 | > 100 | > 100 | > 100 |  |  |  |  | 
CCCCOC(=O)/C(CC(=O)C=C(C)C)=N\NS(=O)(=O)c1ccc(C)cc1 | > 100 | > 100 | > 100 | > 100 | > 100 | > 100 | > 100 | > 100 | > 100 | > 100 |  |  |  |  | 
CC(=O)c1c2c(cc3c1CC1(Cc4cc5c(cc4C1)CCC5)C3)CCC2 | > 100 | > 100 | > 100 | > 100 | > 100 | > 100 | > 100 | > 100 | > 100 | > 100 |  |  |  |  | 
O=C1C(NCCc2cc(Br)c(O)c(Br)c2)=CC(=O)c2ncccc21 | 9.88 | 10.3 | 2.98 | 5.34 | 25 | 40.3 | 73 | 23.2 | 2.84 | 41.6 |  |  |  |  | 
O=C(CCN(CCO)CCO)Nc1ccc2c(c1)C(=O)c1ccc(NC(=O)CCN(CCO)CCO)cc1C2=O | 37.9 | 50.7 | > 100 | > 100 | 32.2 | 60.6 | > 100 | > 100 | 27.9 | 22.1 |  |  |  |  | 
COc1ccc2c(OC)c3ccoc3nc2c1O | > 100 | > 100 | > 100 | > 100 | > 100 | > 100 | > 100 | > 100 | > 100 | > 100 |  |  |  |  | 
COC(=O)/C=C/c1cc(OC)c2c(c1)C(C(=O)OC)C(c1ccc(OC)c(OC)c1)O2 (stereo not given) | > 100 | > 100 | > 100 | 5.61 | > 100 | > 100 | > 100 | > 100 | > 100 | > 100 |  | 64.1 | > 100 | 70.7 µM and 10.7 µM | 32.1 µM and 8.62 µM
N#CCCc1nc2ccc(Br)cc2c(=O)n1-c1ccc(O)c([N+](=O)[O-])c1 | > 100 | 47.7 | 42 | 83.2 | 92.6 | 63.1 | > 100 | 40 | 33.3 | 78.9 |  |  |  |  | 
CC(=O)Nc1c(C)cc(OCC(=O)O)cc1C | > 100 | > 100 | > 100 | > 100 | > 100 | > 100 | > 100 | > 100 | > 100 | > 100 |  |  |  |  | 
Cc1nc2ccccc2nc1NS(=O)(=O)c1ccc(N)cc1 | > 100 | > 100 | > 100 | > 100 | > 100 | > 100 | > 100 | > 100 | > 100 | > 100 |  |  |  |  | 
O=C(CNC(=O)OCc1ccccc1)NCCCCC(NC(=O)OCc1ccccc1)C(=O)O (stereo not given) | > 100 | > 100 | > 100 | > 100 | > 100 | > 100 | > 100 | > 100 | > 100 | > 100 |  |  |  |  | 
